Five compounds from ChEMBL document CHEMBL2203057, “Characterisation of [¹¹C]PR04.MZ in Papio anubis baboon: a selective high-affinity radioligand for quantitative imaging of the dopamine transporter” (Bioorg Med Chem Lett, 2012) can be followed below.

For data set [1], the target named is Sodium-dependent dopamine transporter (Rattus norvegicus, UniProt P23977). The experiment in a line: Binding affinity to rat DAT.
Data set [2] has as its target T1, Sodium-dependent dopamine transporter (Homo sapiens, UniProt Q01959). The experiment in a line: Binding affinity to DAT.
A short description of data set [3]: Drug distribution in Papio anubis putamen assessed as drug efflux constant at 137.4 +/- 66.8 MBq. Type of data set: ADME, tissue-based.
Data set [4] can be described thus: Drug distribution in Papio anubis caudate nucleus assessed as drug efflux constant at 137.4 +/- 66.8 MBq. Type of data set: ADME, tissue-based.
Data set [5] can be described thus: Drug distribution in Papio anubis ventral striatum assessed as drug efflux constant at 137.4 +/- 66.8 MBq. In kind it is ADME, tissue-based.
A short description of data set [6]: Drug distribution in Papio anubis midbrain assessed as drug efflux constant at 137.4 +/- 66.8 MBq. Type of data set: ADME, tissue-based.
Data set [7] in a line: Drug distribution in Papio anubis cerebellum assessed as drug efflux constant at 137.4 +/- 66.8 MBq. In kind it is ADME, tissue-based.
Data set [8] in a line: Drug distribution in Papio anubis putamen assessed as drug influx constant at 137.4 +/- 66.8 MBq. In kind it is ADME, tissue-based.
Data set [9] can be described thus: Drug distribution in Papio anubis caudate nucleus assessed as drug influx constant at 137.4 +/- 66.8 MBq. Type of data set: ADME, tissue-based.
The nature of data set [10]: Drug distribution in Papio anubis ventral striatum assessed as drug influx constant at 137.4 +/- 66.8 MBq. In kind it is ADME, tissue-based.
A short description of data set [11]: Drug distribution in Papio anubis midbrain assessed as drug influx constant at 137.4 +/- 66.8 MBq. In kind it is ADME, tissue-based.
Data set [12] in a line: Drug distribution in Papio anubis cerebellum assessed as drug influx constant at 137.4 +/- 66.8 MBq. Type of data set: ADME, tissue-based.
Data set [13] in a line: In vivo binding affinity to DAT in Papio anubis putamen assessed as binding potential at 137.4 +/- 66.8 MBq. In kind it is ADME, organism-based.
The nature of data set [14]: In vivo binding affinity to DAT in Papio anubis caudate nucleus assessed as binding potential at 137.4 +/- 66.8 MBq. In kind it is ADME, organism-based.
A short description of data set [15]: In vivo binding affinity to DAT in Papio anubis ventral striatum assessed as binding potential at 137.4 +/- 66.8 MBq. In kind it is ADME, organism-based.
The nature of data set [16]: In vivo binding affinity to DAT in Papio anubis midbrain assessed as binding potential at 137.4 +/- 66.8 MBq. In kind it is ADME, organism-based.
The nature of data set [17]: In vivo binding affinity to DAT in Papio anubis cerebellum assessed as binding potential at 137.4 +/- 66.8 MBq. Type of data set: ADME, organism-based.
In another data set the test system is Nucleic Acid. The experiment in a line: Ratio of drug level in midbrain to cerebellum in Papio anubis midbrain at 137.4 +/- 66.8 MBq measured 90 mins post dose. Type of data set: ADME. To be noted: 1.5 h.
Data set [18] can be described thus: Stability in Sprague-Dawley rat brain assessed as intact compound level measured 60 mins post dose by HPLC. In kind it is ADME, tissue-based. The settings on record: read-out: Stability.
Data set [19] can be described thus: Stability in Papio anubis plasma assessed as intact compound level at 137.4 +/- 66.8 MBq measured 30 mins post dose. Type of data set: ADME, cell-free. The settings on record: read-out: Stability.
Data set [20] can be described thus: Drug uptake in Papio anubis midbrain at 137.4 +/- 66.8 MBq measured 60 mins post dose co-treated with DAT ligand [18F]PR04.MZ by dynamic PET scanning method. In kind it is ADME, tissue-based. To be noted: 1 h.
A short description of data set [21]: Drug uptake in Papio anubis caudate nucleus at 137.4 +/- 66.8 MBq measured 60 mins post dose co-treated with DAT ligand [18F]PR04.MZ by dynamic PET scanning method. Type of data set: ADME, tissue-based. The settings on record: 1 h.
Data set [22] can be described thus: Drug uptake in Papio anubis putamen at 137.4 +/- 66.8 MBq measured 60 mins post dose co-treated with DAT ligand [18F]PR04.MZ by dynamic PET scanning method. The settings on record: 1 h. Type of data set: ADME, tissue-based.
A short description of data set [23]: Drug uptake in Papio anubis midbrain at 137.4 +/- 66.8 MBq measured 60 mins post dose co-treated with 1.5 mg/kg DAT ligand GBR12909 by dynamic PET scanning method. In kind it is ADME, organism-based. Further details: dose 1.5 mg/kg; call rule not given here. To be noted: in vivo, 1 h.
The nature of data set [24]: Drug uptake in Papio anubis caudate nucleus at 137.4 +/- 66.8 MBq measured 60 mins post dose co-treated with 1.5 mg/kg DAT ligand GBR12909 by dynamic PET scanning method. Type of data set: ADME, organism-based. Further details: dose 1.5 mg/kg. To be noted: in vivo, 1 h.
Data set [25] in a line: Drug uptake in Papio anubis putamen at 137.4 +/- 66.8 MBq measured 60 mins post dose co-treated with 1.5 mg/kg DAT ligand GBR12909 by dynamic PET scanning method. Type of data set: ADME, organism-based. Further details: dose 1.5 mg/kg. The settings on record: in vivo, 1 h.
Data set [26] is described as follows: Drug uptake in Papio anubis mid brain at 137.4 +/- 66.8 MBq measured 90 mins post dose by dynamic PET scanning method. Type of data set: ADME, tissue-based, Midbrain. The settings on record: 1.5 h.
The nature of data set [27]: Drug uptake in Papio anubis mid brain at 137.4 +/- 66.8 MBq measured 45 mins post dose by dynamic PET scanning method. The settings on record: 0.75 h. Type of data set: ADME, tissue-based, Midbrain.
A short description of data set [28]: Drug uptake in Papio anubis mid brain at 137.4 +/- 66.8 MBq measured 3.5 mins post dose by dynamic PET scanning method. In kind it is ADME, tissue-based, Midbrain.
The nature of data set [29]: Drug uptake in Papio anubis ventral striatum at 137.4 +/- 66.8 MBq measured 90 mins post dose by dynamic PET scanning method. In kind it is ADME, tissue-based. The settings on record: 1.5 h.
A short description of data set [30]: Drug uptake in Papio anubis ventral striatum at 137.4 +/- 66.8 MBq measured 45 mins post dose by dynamic PET scanning method. In kind it is ADME, tissue-based. To be noted: 0.75 h.
Data set [31] in a line: Drug uptake in Papio anubis ventral striatum at 137.4 +/- 66.8 MBq measured 7.5 +/- 0.5 mins post dose by dynamic PET scanning method. In kind it is ADME, tissue-based.
The nature of data set [32]: Drug uptake in Papio anubis striatum assessed per 100 ml at 137.4 +/- 66.8 MBq measured 180 mins post dose by dynamic PET scanning method. In kind it is ADME, tissue-based. To be noted: 3 h.
Data set [33] is described as follows: Drug uptake in Papio anubis striatum assessed per 100 ml at 137.4 +/- 66.8 MBq measured 90 mins post dose by dynamic PET scanning method. Type of data set: ADME, tissue-based. The settings on record: 1.5 h.
Data set [34] is described as follows: Drug uptake in Papio anubis striatum assessed per 100 ml at 137.4 +/- 66.8 MBq measured 25 +/- 2.5 mins post dose by dynamic PET scanning method. Type of data set: ADME, tissue-based.
The next data set has as its system Brain. The experiment in a line: Drug uptake in Papio anubis whole brain assessed per 100 ml at 137.4 +/- 66.8 MBq measured 3 +/- 0.5 mins post dose by dynamic PET scanning method. In kind it is ADME, tissue-based.
Data set [35] in a line: Unbound fraction in Papio anubis plasma at 137.4 +/- 66.8 MBq. Type of data set: ADME, cell-free.
Data set [36] in a line: Drug uptake in Papio anubis putamen assessed per 100 ml at 137.4 +/- 66.8 MBq measured 25 +/- 2.5 mins post dose by dynamic PET scanning method. In kind it is ADME, tissue-based.
Data set [37] in a line: Drug uptake in Papio anubis caudate nucleus assessed per 100 ml at 137.4 +/- 66.8 MBq measured 25 mins post dose by dynamic PET scanning method. Type of data set: ADME, tissue-based.
The nature of data set [38]: Lipophilicity, log D of the compound at pH 7.4 by HPLC. In kind it is physicochemical. To be noted: buffer.
The target of data set [39] is T2, Sodium-dependent noradrenaline transporter (Homo sapiens, UniProt P23975). The experiment in a line: Displacement of [3H]nisoxetine from human NET expressed in HEK293 cells. In kind it is cell-based. A general note: In a radioligand displacement assay an active substance lowers the binding of a labelled ligand.
In data set [40] the target is T2, Sodium-dependent noradrenaline transporter. The experiment in a line: Displacement of [3H]NE from human NET expressed in HEK293 cells. In kind it is cell-based.
For data set [41], the target named is T3, Sodium-dependent serotonin transporter (Homo sapiens, UniProt P31645). The experiment in a line: Displacement of [3H]citalopram from human SERT expressed in HEK293 cells. Type of data set: cell-based.
Data set [42] concerns the target T1, Sodium-dependent dopamine transporter. The experiment in a line: Displacement of [3H]WIN35,428 from human DAT expressed in HEK293 cells. Type of data set: cell-based.
For data set [43], the target named is T3, Sodium-dependent serotonin transporter. The experiment in a line: Displacement of [3H]5-HT from human SERT expressed in HEK293 cells. In kind it is cell-based.
For data set [44], the target named is T1, Sodium-dependent dopamine transporter. The experiment in a line: Displacement of [3H]DA from human DAT expressed in HEK293 cells. In kind it is cell-based.

T1 sequence (Q01959 whole entry): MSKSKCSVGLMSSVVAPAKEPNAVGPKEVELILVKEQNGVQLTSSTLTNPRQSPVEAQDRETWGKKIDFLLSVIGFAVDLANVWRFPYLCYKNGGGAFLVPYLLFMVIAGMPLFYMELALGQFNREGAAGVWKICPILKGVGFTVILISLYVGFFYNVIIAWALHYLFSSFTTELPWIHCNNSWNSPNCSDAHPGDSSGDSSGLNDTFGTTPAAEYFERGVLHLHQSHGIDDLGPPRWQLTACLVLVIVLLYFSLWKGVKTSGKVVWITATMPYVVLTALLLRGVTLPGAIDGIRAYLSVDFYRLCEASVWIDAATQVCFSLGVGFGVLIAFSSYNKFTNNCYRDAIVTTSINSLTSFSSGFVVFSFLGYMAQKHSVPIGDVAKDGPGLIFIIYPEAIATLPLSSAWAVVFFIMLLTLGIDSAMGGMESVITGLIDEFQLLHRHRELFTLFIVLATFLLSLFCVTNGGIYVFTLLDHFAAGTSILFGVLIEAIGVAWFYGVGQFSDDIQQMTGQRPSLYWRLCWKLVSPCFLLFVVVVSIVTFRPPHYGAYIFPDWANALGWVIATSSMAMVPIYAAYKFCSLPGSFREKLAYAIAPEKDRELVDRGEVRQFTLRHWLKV
T3 sequence (P31645 whole entry): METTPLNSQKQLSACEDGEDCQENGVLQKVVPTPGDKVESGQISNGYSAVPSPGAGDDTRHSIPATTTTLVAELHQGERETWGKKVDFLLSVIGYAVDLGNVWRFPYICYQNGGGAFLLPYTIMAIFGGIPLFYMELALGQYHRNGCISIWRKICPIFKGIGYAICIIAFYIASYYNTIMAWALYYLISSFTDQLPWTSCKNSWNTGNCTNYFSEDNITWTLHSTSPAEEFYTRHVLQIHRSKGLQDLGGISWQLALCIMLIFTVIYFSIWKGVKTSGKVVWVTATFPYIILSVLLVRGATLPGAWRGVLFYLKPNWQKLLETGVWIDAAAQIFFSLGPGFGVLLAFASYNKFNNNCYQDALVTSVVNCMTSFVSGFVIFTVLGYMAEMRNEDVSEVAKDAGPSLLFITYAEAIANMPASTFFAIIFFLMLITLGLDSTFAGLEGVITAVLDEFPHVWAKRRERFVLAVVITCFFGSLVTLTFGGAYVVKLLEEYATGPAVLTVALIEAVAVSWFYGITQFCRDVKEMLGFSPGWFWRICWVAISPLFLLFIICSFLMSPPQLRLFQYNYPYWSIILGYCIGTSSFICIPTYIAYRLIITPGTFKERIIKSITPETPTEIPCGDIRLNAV
Chain of Sodium-dependent dopamine transporter (Rattus norvegicus, UniProt P23977) (P23977 whole entry): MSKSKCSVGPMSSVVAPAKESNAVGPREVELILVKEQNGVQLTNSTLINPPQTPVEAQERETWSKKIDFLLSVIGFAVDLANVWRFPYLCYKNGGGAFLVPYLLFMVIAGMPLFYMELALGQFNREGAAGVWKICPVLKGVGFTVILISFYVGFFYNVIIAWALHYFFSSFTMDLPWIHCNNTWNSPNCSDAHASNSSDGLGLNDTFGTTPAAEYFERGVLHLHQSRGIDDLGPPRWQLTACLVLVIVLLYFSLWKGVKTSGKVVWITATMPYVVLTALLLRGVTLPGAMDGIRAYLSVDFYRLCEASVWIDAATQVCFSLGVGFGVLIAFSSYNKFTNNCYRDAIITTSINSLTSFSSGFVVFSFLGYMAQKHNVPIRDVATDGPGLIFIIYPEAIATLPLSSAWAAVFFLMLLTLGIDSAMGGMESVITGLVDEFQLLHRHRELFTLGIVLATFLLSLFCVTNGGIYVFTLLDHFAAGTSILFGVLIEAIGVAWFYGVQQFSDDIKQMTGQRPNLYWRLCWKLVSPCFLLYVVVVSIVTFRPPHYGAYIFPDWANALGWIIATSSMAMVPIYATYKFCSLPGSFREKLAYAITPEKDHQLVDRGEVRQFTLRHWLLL
T2 sequence (P23975 whole entry): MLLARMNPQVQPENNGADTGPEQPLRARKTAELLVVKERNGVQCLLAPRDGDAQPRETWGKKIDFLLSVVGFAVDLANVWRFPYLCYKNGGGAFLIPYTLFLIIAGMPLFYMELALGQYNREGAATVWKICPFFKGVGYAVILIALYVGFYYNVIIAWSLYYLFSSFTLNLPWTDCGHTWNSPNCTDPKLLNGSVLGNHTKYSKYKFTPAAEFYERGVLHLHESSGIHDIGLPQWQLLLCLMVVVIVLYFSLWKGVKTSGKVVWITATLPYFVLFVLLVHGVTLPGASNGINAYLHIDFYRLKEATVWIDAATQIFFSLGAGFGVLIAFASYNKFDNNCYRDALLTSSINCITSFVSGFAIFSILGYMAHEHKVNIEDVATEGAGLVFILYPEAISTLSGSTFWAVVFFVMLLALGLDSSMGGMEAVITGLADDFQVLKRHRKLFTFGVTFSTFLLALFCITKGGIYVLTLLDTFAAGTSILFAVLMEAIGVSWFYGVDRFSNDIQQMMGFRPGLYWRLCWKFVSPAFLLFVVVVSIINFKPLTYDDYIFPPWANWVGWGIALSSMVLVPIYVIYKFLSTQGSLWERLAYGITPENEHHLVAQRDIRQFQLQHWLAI

`COC(=O)[C@H]1[C@@H](c2ccc(C)cc2)C[C@@H]2CC[C@H]1N2C/C=C/CF`: the Kd (commonly the concentration at which binding is half-saturated) in [1] turned out to be 9 nM.

In the case of `COC(=O)[C@H]1[C@@H](c2ccc(Cl)cc2)C[C@@H]2CC[C@H]1N2CCF`, the affinity in data set [2] corresponds to a Ki of 8 nM.

In data set [1], `COC(=O)[C@H]1[C@@H](c2ccc(C)cc2)C[C@@H]2CC[C@H]1N2C/C=C/I` gave a Kd of 4 nM.

Take `Cc1ccc([C@H]2C[C@@H]3CC[C@H]([C@H]2C(=O)O[11CH3])N3CC#CCF)cc1`: the Activity worked out at 0.004 min⁻¹ in data set [3]; 0.004 min⁻¹ in [4]; 0.0076 min⁻¹ in data set [5]; 0.016 min⁻¹ in [6]; 0.036 min⁻¹ in [7]; 0.015 ml/cm3/min in data set [8]. Also, the Activity in data set [9] is 0.017 ml/cm3/min; in data set [10], 0.03 ml/cm3/min; in data set [11], 0.064 ml/cm3/min; in [12], 0.144 ml/cm3/min; in [13], 36.8 ml/cm3; in data set [14], 29.3 ml/cm3. Besides, the figures for the Activity in data set [15], in [16] and in data set [17] were 8.2 ml/cm3, 2.7 ml/cm3 and 0 ml/cm3, respectively. Moreover, the Ratio in the data set on Nucleic Acid worked out at 4.6. Moreover, the remaining at 1 h in data set [18] is more than 95%. Further, the remaining at 0.5 h in [19] was found to be 39%. In addition, the Drug uptake result in data set [20], in data set [21], in data set [22], in [23], in data set [24] and in [25] was “Not Active” in each case. In addition, the Drug uptake in data set [26] came out at 0.8 %ID/ml; in data set [27], 1.3 %ID/ml; in [28], 2.8 %ID/ml; in data set [29] it was 2.55 %ID/ml; in [30], 3.1 %ID/ml; in data set [31] it was 3.8 %ID/ml. Further, the Drug uptake in [32] came to 4.8 %ID; in [33] it was 6.7 %ID; in [34] it was 7.6 %ID; in the data set with Brain it was 26.1 %ID; in data set [36], 7.6 %ID; in data set [37], 6.7 %ID. Moreover, the Fu in [35] turned out to be 4.4 %ID.

Take `COC(=O)[C@H]1[C@@H](c2ccc(C)cc2)C[C@@H]2CC[C@H]1N2CC#CCF`: the pH-dependent lipophilicity (logD) (usually lipophilicity at a set pH, counting ionised and neutral species) in data set [38] was 2.7. Moreover, the half-maximal inhibitory concentration (IC50) (commonly the concentration that inhibits the measured activity by half) in data set [39] stood at 22.5 nM; in data set [40], 31 nM; in data set [41] it was 108 nM; in [42], 1.93 nM; in data set [43] it was 240 nM; in data set [44], 3.26 nM.
